Positions of bridges follow the written chain, without caps; N, C: chain ends. Non-standard residues stand in square brackets, D forms with d. Residues, ends and D or L forms follow the SMILES beside them. Leu(3R-O(AcLeu(3R-OH))) = CC(=O)N[C@H](C(=O)O[C@H](C(C)C)[C@H](N)C(=O)O)[C@H](O)C(C)C; NMeT = CN[C@H](C(=O)O)[C@@H](C)O; dPhLac = O=C(O)[C@H](O)Cc1ccccc1; NMeA = CN[C@@H](C)C(=O)O; NMeDha = C=C(NC)C(=O)O
Legend:
C57BL/6 mice [1] = assay: Hot plate test (52.5° C), anti-nociception; type: in vivo, mouse
From the text: (§1) A. Experimental animals. C57BL/6 mice (6-8 weeks old) of both sexes were used. Mice were housed in groups on a 12-h light-dark cycle (6:00 am light cycle; 6:00 pm dark cycle) with food (Teklad Global 16% protein rodent diets; Envigo Inc., WI, USA) and water available ad libitum. Animal groups were compiled to ensure minimization of factors (e.g., weight, sex, and health). Mice were within 20-28 g in weight at start of all studies. All tested groups contained a control group and consisted of male and female mice. Males and females were tested on the same day but at different times so that they were not in the room at the same time. All the experiments were tested during the light cycle between 8:00 am and 3:00 pm to avoid any long-term disruption of sleep cycles. Mice were transferred to the behavioural testing room at least 45 min before the first test to acclimatize. Following behavioural evaluation, animals were killed by CO2 inhalation, followed by cervical dislocation and postmortem decapitation.
(§2) B. Drug treatments. […] The dose of YM-254890 for subcutaneous injection was taken from previous published studies. The dose of morphine selected for subcutaneous administration (2.5, 5 and 10 mg kg-1) is commonly used in mouse analgesia. For the combined administration of morphine and YM-254890 on thermal anti-nociception, YM-254890 was administered 10 min before the morphine. The latency of response was measured before injection of drugs (baseline latency response) and at different time intervals (post-treatment latency response) after drugs injection.
D. Intracerebral injections. Intracerebroventricular administration was performed following the method described previously with slight modifications (Haley T J et al. “Pharmacological effects produced by intracerebral injection of drugs in the conscious mouse.” British Journal of Pharmacology and Chemotherapy, (1957) 12:12-15; Narita M et al. “Reduced expression of a novel μ-opioid receptor (MOR) subtype MOR-1B in CXBK mice: Implications of MOR-1B in the expression of MOR-mediated responses.” The European Journal of Neuroscience (2003) 18:3193-3198)). On the day of the drug/vehicle injection or on the day of behavioural test, the mouse was secured at the nape of the neck and head by the investigator's thumb and forefinger, and head of the mouse was held against a V-shaped holder. A 27-gauge hypodermic needle attached with 25 μL. Hamilton microsyringe was inserted perpendicularly into the unilateral injection site into the hole with the depth of 3.5 mm. The injection volume was 4 μL.
(1) Hot Plate test. Animals were tested for the assessment of anti-nociception and analgesic effects of morphine using a hotplate set to 52.5° C. The assay was performed as described previously (Bannon A W et al. “Models of nociception: Hotplate, tail-flick, and formalin tests in rodents.” In Current Protocols in Neuroscience, Chapter 8: Unit 8.9. Wiley (2007); Wang D et al. “Genetic behavioral screen identifies an orphan anti-opioid system.” Science (2019) 365:1267-1273). Mice were placed in a Plexiglas chamber (16″ tall and 8″ in diameter) on a ceramic plate heated to 52.5° C. and the timer started.

C57BL/6 mice [2] = system: C57BL/6 mice
From the text: as §1, §2
C. Intrathecal injections. Intrathecal (i.t.) administration was performed following the method described previously (Hylden J L et al. “Intrathecal morphine in mice: a new technique.” Eur J Pharmacol (1980) 67:313-316; Li D et al. “Direct Intrathecal Injection of Recombinant Adeno-associated Viruses in Adult Mice.” J Vis Exp (2019)) with slight modifications. All intrathecal injections were performed using a 25 μL Hamilton syringe with a 30-gauge needle. The injection volume was 5 μL for each mouse. […] Each solution was injected without injection cannulae. Intrathecal injections were made into the L5-L6 intervertebral space of unanesthetized mice. The flick of the tail was considered indicative of a successful i.t. administration.

[3] = YM-254890 s.c. with morphine 5 mg/kg s.c., all animals

C=C1C(=O)N[C@@H](C)C(=O)N(C)[C@@H](C)C(=O)N[C@@H]([C@H](OC(=O)[C@@H](NC(C)=O)[C@H](O)C(C)C)C(C)C)C(=O)N(C)[C@@H]([C@@H](C)OC)C(=O)O[C@H](C)[C@H](NC(C)=O)C(=O)O[C@H](Cc2ccccc2)C(=O)N1C [YM-254890] (Ac-T[dPhLac][NMeDha]A[NMeA][Leu(3R-O(AcLeu(3R-OH)))][NMeT](Me); ester 1-C)
effect on opioid-induced analgesia, hotplate test (C57BL/6 mice [1]; YM-254890 0.25 mg·kg−1 s.c. (subthreshold) 10 min before morphine 5 mg/kg s.c.): significantly potentiated anti-nociceptive effects
effect on opioid-induced analgesia, hotplate test (C57BL/6 mice [1]; YM-254890 0.5 mg·kg−1 s.c. 10 min before morphine 5 mg/kg s.c.): further enhancement of opioid analgesia
effect on onset timing and duration of opioid analgesia, hotplate test (C57BL/6 mice [1]; YM-254890 0.25 or 0.5 mg·kg−1 s.c. with morphine 5 mg/kg s.c.): no effect on either the onset timing or duration of the opioid analgesia
time of maximal analgesic response after injection, hotplate test (C57BL/6 mice [1]; YM-254890 alone, subcutaneous, 0.5 and 1.0 mg·kg−1): 30 min
paw withdrawal latencies in hotplate test (C57BL/6 mice [1]; YM-254890 alone, subcutaneous, higher doses 0.5 and 1.0 mg·kg−1): produced increases in paw withdrawal latencies
paw withdrawal latencies in hotplate test (C57BL/6 mice [1]; YM-254890 alone, subcutaneous, lower doses 0.1 and 0.3 mg·kg−1): No significant effect
analgesia in hotplate test after delivery directly into the brain (C57BL/6 mice [1]; YM-254890 i.c.v. 0.4, 1.2, 4 nmol): dose-dependent increase in both the extent and duration of analgesia
time to reach maximal latencies, hotplate test (C57BL/6 mice [1]; [3]): about 30 min
time to recover to baseline nociceptive thresholds, hotplate test (C57BL/6 mice [1]; [3]): about 3 h
effect on morphine locomotor-sensitizing effect, open-field test (C57BL/6 mice [2]; YM-254890 0.5 mg/kg s.c. 10 min before morphine 5 mg/kg s.c., 120 min): completely suppressed these effects
locomotion in open-field test (C57BL/6 mice [2]; YM-254890 0.5 mg/kg s.c. with morphine 5 mg/kg s.c., comparable with YM-254890 alone): substantial decrease in locomotion
motor activity in open-field test after intrathecal delivery (C57BL/6 mice [2]; YM-254890 intrathecal 3.0 nmol, alone or in combination with morphine 2.5 mg/kg s.c., 120 min): no significant changes in motor activity
